Data on 15 compounds can be found in US8697641B2, “4-amino-4-oxobutanoyl peptide cyclic analogues, inhibitors of viral replication” (Achillion Pharmaceuticals, Inc., priority 2008, dated 2014).

Some results are limits rather than exact numbers.

This experiment relates to Hepatitis C replicon. The experiment can be described thus: HCV replicon assay (NPT ELISA readout) in Huh-7 replicon-containing cells. It is filed as cell-based, Hepatitis C virus. The note with it: Hepatitis C virus, 72 h; HCV replicon in Huh-7 cells, three days incubation. In a few lines: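 Replication is measured as neomycin phosphotransferase level by captured ELISA after three days of compound exposure (typically 10 to 0.03 μM, 6 concentrations) at 37 °C. Cells are Huh-7 harbouring an HCV replicon with neo gene and NS3-NS5B; interferon alpha is the positive control.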
(In antiviral work, replicon cells carry a viral genome segment that copies itself.)

In turn, `COc1ccc2c(O[C@@H]3C[C@H]4C(=O)NC(C)(C(=O)O)C/C=C\CCCCC[C@H](CC(=O)N5CCCCC5)C(=O)N4C3)cc(-c3ccccc3)nc2c1` (stereo partly drawn) [Compound 64, (12R,16R,17aS,Z)-16-(7-methoxy-2-phenylquinolin-4-yloxy)-3-methyl-1,13-dioxo-12-(2-oxo-2-(piperidin-1-yl)ethyl)-2,3,4,7,8,9,10,11, 12,13,15,16,17,17a-tetradecahydro-1H-pyrrolo[1,2-a][1,4] diazacyclopentadecine-3-carboxylic acid] had an EC50 of 1000 to 10000 nM.

For `COc1ccc2c(O[C@@H]3C[C@H]4C(=O)N[C@]5(C(=O)NS(=O)(=O)C6CC6)C[C@H]5/C=C\CCCCC[C@H](CC(=O)N5CC[C@@H](N)C5)C(=O)N4C3)cc(-c3ccccc3)nc2c1` [Compound 106, (2R,6R,14aR,16aS, Z)-6-(2-((R)-3-aminopyrrolidin-1-yl)-2-oxoethyl)-N-(cyclopropylsulfonyl)-2-(7-methoxy-2-phenylquinolin-4-yloxy)-5,16-dioxo-1,2,3,5,6,7,8,9,10,11, 13a,14,14a,15,16,16a-hexadecahydrocyclopropa [e]pyrrolo[1,2-a][1,4] diazacyclopentadecine-14a-carboxamide], the EC50 is < 1000 nM.

For `COc1ccc2c(O[C@@H]3C[C@H]4C(=O)N[C@]5(C(=O)NS(=O)(=O)C6CC6)C[C@H]5/C=C\CCCCC[C@H](CC(=O)N5CCC(C(F)(F)F)CC5)C(=O)N4C3)cc(-c3ccccc3)nc2c1` [Compound 62, (2R,6R,13aS, 14aR,16aS,Z)-N-(cyclopropylsulfonyl)-2-(7-methoxy-2-phenylquinolin-4-yloxy)-5,16-dioxo-6-(2-oxo-2-(4-(trifluoromethyl)piperidin-1-yl)ethyl)-1,2,3,5,6,7,8,9,10,11, 13a,14,14a,15,16,16a-hexadecahydrocyclopropa [e]pyrrolo[1,2-a][1,4] diazacyclopentadecine-14a-carboxamide], the concentration giving a half-maximal response (EC50) was < 1000 nM.

On to `CCS(=O)(=O)N1CCN(C(=O)C[C@H]2CCCCC/C=C\[C@@H]3C[C@@]3(C(=O)NS(=O)(=O)C3CC3)NC(=O)[C@@H]3C[C@@H](Oc4cc(-c5ccccc5)nc5cc(OC)ccc45)CN3C2=O)CC1` [Compound 86, (2R,6R,14aR,16aS,Z)-N-(cyclopropylsulfonyl)-6-(2-(4-(ethylsulfonyl)piperazin-1-yl)-2-oxoethyl)-2-(7-methoxy-2-phenylquinolin-4-yloxy)-5,16-dioxo-1,2,3,5,6,7,8,9,10,11, 13a,14,14a,15,16,16a-hexadecahydrocyclopropa [e]pyrrolo[1,2-a][1,4] diazacyclopentadecine-14a-carboxamide], for which the EC50 was < 1000 nM.

Take `COc1ccc2c(O[C@@H]3C[C@H]4C(=O)N[C@]5(C(=O)NS(=O)(=O)C6CC6)C[C@H]5/C=C\CCCCC[C@H](CC(=O)N5CCC(C(F)(F)F)CC5)C(=O)N4C3)cc(-c3csc(NC(C)C)n3)nc2c1C` [Compound 121, (2R,6R,13aS,16aS,Z)-N-(cyclopropylsulfonyl)-2-(2-(2-(isopropylamino)thiazol-4-yl)-7-methoxy-8-methylquinolin-4-yloxy)-5,16-dioxo-6-(2-oxo-2-(4-(trifluoromethyl)piperidin-1-yl)ethyl)-1,2,3,5,6,7,8,9,10,11, 13a,14,14a,15,16,16a-hexadecahydrocyclopropa [e]pyrrolo[1,2-a][1,4] diazacyclopentadecine-14a-carboxamide]: the half-maximal effective concentration (EC50) is < 1000 nM.

With `COc1ccc2c(O[C@@H]3C[C@H]4C(=O)N[C@]5(C(=O)NS(=O)(=O)C6CC6)C[C@H]5/C=C\CCCCC[C@H](CC(=O)N5CCCC(F)(F)C5)C(=O)N4C3)nccc2c1Cl` [Compound 123, (2R,6R,13aS,16aS, Z)-2-(5-chloro-6-methoxylsoquinolin-1-yloxy)-N-(cyclopropylsulfonyl)-6-(2-(3,3-difluoropiperidin-1-yl)-2-oxoethyl)-5,16-dioxo-1,2,3,5,6,7,8,9,10,11, 13a,14,14a,15,16,16a-hexadecahydrocyclopropa [e]pyrrolo[1,2-a][1,4] diazacyclopentadecine-14a-carboxamide], the concentration giving a half-maximal response (EC50) was > 10000 nM.

As for `COc1ccc2c(O[C@@H]3C[C@H]4C(=O)N[C@]5(C(=O)NS(=O)(=O)C6CC6)C[C@H]5/C=C\CCCCC[C@H](CC(=O)N5CC[C@H](O)C5)C(=O)N4C3)cc(-c3ccccc3)nc2c1` [Compound 108, (2R,6R,14aR,16aS,Z)-N-(cyclopropylsulfonyl)-6-(2-((S)-3-hydroxypyrrolidin-1-yl)-2-oxoethyl)-2-(7-methoxy-2-phenylquinolin-4-yloxy)-5,16-dioxo-1,2,3,5,6,7,8,9,10,11, 13a,14,14a,15,16,16a-hexadecahydrocyclopropa [e]pyrrolo[1,2-a][1,4] diazacyclopentadecine-14a-carboxamide], the half-maximal effective concentration (EC50) was < 1000 nM.

As for `COc1ccc2c(O[C@@H]3C[C@H]4C(=O)N[C@]5(C(=O)NS(=O)(=O)C6CC6)C[C@H]5/C=C\CCCCC[C@H](CC(=O)N5CCCC(F)(F)C5)C(=O)N4C3)cc(-c3nc(C(C)C)cs3)nc2c1C` [Compound 128, (2R,6R,14aR,16aS,Z)-N-(cyclopropylsulfonyl)-6-(2-(3,3-difluoropiperidin-1-yl)-2-oxoethyl)-2-(2-(4-isopropylthiazol-2-yl)-7-methoxy-8-methylquinolin-4-yloxy)-5,16-dioxo-1,2,3,5,6,7,8,9,10,11, 13a,14,14a,15,16,16a-hexadecahydrocyclopropa [e]pyrrolo[1,2-a][1,4] diazacyclopentadecine-14a-carboxamide], the half-maximal effective concentration (EC50) was < 1000 nM.

Consider `COc1ccc2c(O[C@@H]3C[C@H]4C(=O)N[C@]5(C(=O)NS(=O)(=O)C6CC6)C[C@H]5/C=C\CCCCC[C@H](CC(=O)N5CCC(C(F)(F)F)CC5)C(=O)N4C3)nccc2c1Cl` [Compound 124], for which the concentration giving a half-maximal response (EC50) was < 1000 nM.

In the case of `COc1ccc2c(O[C@@H]3C[C@H]4C(=O)N[C@]5(C(=O)NS(=O)(=O)C6CC6)C[C@H]5/C=C\CCCCC[C@H](CC(=O)N5CCCC(F)C5)C(=O)N4C3)cc(-c3ccccn3)nc2c1Cl` (stereo partly drawn) [Compound 100, (2R,6R,14aR,16aS,Z)-2-(8-chloro-7-methoxy-2-(pyridin-2-yl)quinolin-4-yloxy)-N-(cyclopropylsulfonyl)-6-(2-(3-fluoropiperidin-1-yl)-2-oxoethyl)-5,16-dioxo-1,2,3,5,6,7,8,9,10,11, 13a,14,14a,15,16,16a-hexadecahydrocyclopropa [e]pyrrolo[1,2-a][1,4] diazacyclopentadecine-14a-carboxamide], the 50% effective concentration (EC50) was < 1000 nM.

Consider `CCOC(=O)C12CC1/C=C\CCCCC[C@@H](CC(=O)N1CCCCC1)C(=O)N1C[C@H](Oc3cc(-c4ccccc4)nc4cc(OC)ccc34)C[C@H]1C(=O)N2` (stereo partly drawn) [Compound 42, (2R,6S,16aS,Z)-ethyl 2-(7-methoxy-2-phenylquinolin-4-yloxy)-5,16-dioxo-6-(2-oxo-2-(piperidin-1-yl)ethyl)-1,2,3,5,6,7,8,9,10,11, 13a,14,14a,15,16,16a-hexadecahydrocyclopropa [e]pyrrolo[1,2-a][1,4] diazacyclopentadecine-14a-carboxylate], for which the EC50 lay in the range of 1000 to 10000 nM.

For `COc1ccc2c(O[C@@H]3C[C@H]4C(=O)N[C@]5(C(=O)NS(=O)(=O)C6CC6)C[C@H]5/C=C\CCCCC[C@H](CC(=O)N5CCCC5C(F)(F)F)C(=O)N4C3)cc(-c3ccccn3)nc2c1Cl` (stereo partly drawn) [Compound 95, (2R,6R,14aR,16aS,Z)-2-(8-chloro-7-methoxy-2-(pyridin-2-yl)quinolin-4-yloxy)-N-(cyclopropylsulfonyl)-5,16-dioxo-6-(2-oxo-2-(2-(trifluoromethyl)pyrrolidin-1-yl)ethyl)-1,2,3,5,6,7,8,9,10,11, 13a,14,14a,15,16,16a-hexadecahydrocyclopropa [e]pyrrolo[1,2-a][1,4] diazacyclopentadecine-14a-carboxamide], the concentration for a half-maximal effect (EC50) is < 1000 nM.

`COc1ccc2c(O[C@@H]3C[C@H]4C(=O)N[C@]5(C(=O)NS(=O)(=O)C6CC6)C[C@H]5/C=C\CCCCC[C@H](CC(=O)N[C@@H]5CCNC5)C(=O)N4C3)cc(-c3ccccc3)nc2c1` [Compound 109, (2R,6R,14aR,16aS,Z)-N-(cyclopropylsulfonyl)-2-(7-methoxy-2-phenylquinolin-4-yloxy)-5,16-dioxo-6-(2-oxo-2-((R)-pyrrolidin-3-ylamino)ethyl)-1,2,3,5,6,7,8,9,10,11, 13a,14,14a,15,16,16a-hexadecahydrocyclopropa [e]pyrrolo[1,2-a][1,4] diazacyclopentadecine-14a-carboxamide]: the EC50 is < 1000 nM.

Compound `COc1ccc2c(O[C@@H]3C[C@H]4C(=O)NC5(C(=O)O)CC5/C=C\CCCCC[C@@H](CC(=O)N5CCCCC5)C(=O)N4C3)cc(-c3ccccc3)nc2c1` (stereo partly drawn) [Compound 43, (2R,6S,16aS,Z)-2-(7-methoxy-2-phenylquinolin-4-yloxy)-5,16-dioxo-6-(2-oxo-2-(piperidin-1-yl)ethyl)-1,2,3,5,6,7,8,9,10,11, 13a,14,14a,15,16,16a-hexadecahydrocyclopropa [e]pyrrolo[1,2-a][1,4] diazacyclopentadecine-14a-carboxylic acid] had an EC50 of 1000 to 10000 nM.

Take `COc1ccc2c(O[C@@H]3C[C@H]4C(=O)N[C@]5(C(=O)NS(=O)(=O)C6CC6)C[C@H]5/C=C\CCCCC[C@H](CC(=O)N5CCC(F)CC5)C(=O)N4C3)cc(-c3ccccn3)nc2c1Cl` [Compound 101, (2R,6R,14aR,16aS,Z)-2-(8-chloro-7-methoxy-2-(pyridin-2-yl)quinolin-4-yloxy)-N-(cyclopropylsulfonyl)-6-(2-(4-fluoropiperidin-1-yl)-2-oxoethyl)-5,16-dioxo-1,2,3,5,6,7,8,9,10,11, 13a,14,14a,15,16,16a-hexadecahydrocyclopropa [e]pyrrolo[1,2-a][1,4] diazacyclopentadecine-14a-carboxamide]: the EC50 is < 1000 nM.

Broadly, the EC50 is the concentration needed to bring the measured effect to its halfway point. A higher EC50 goes with a need for much substance.
